Patent US12077503B2, “Substituted cyclic amides and their use as herbicides” (FMC CORPORATION, priority 2015, dated 2024)

Experiments:
Format in all cases: in vivo
corn (Zea mays) [1] = assay: Test G Pre-Emergence Protocol; conditions: Zea mays, pre-emergence, 312 h, evaluated after 13 days; for plant injury at 15.625 g/ha: 15.625 g ai/ha; for plant injury at 15.625 g/ha / plant injury at 250 g/ha: read-out: Corn damage rating (100=total damage to plant; 0=no damage to plant); for plant injury at 62.5 g/ha: 62.5 g ai/ha, 100=total damage to plant, 0=no damage to plant, read-out: plant damage rating, Corn; for plant injury at 250 g/ha: 250 g ai/ha
In short: (§1)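 Pre-emergence spray, 15.625/62.5/250 g/ha, vehicle acetone:water 50:50 + 0.5% Tween 20, applied 1 d after sowing. Glasshouse 24/16° C, 14 h light, 65% RH, watered twice daily. Visual damage rating at 13 d, 0–100 scale.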

[2] = test system: redroot pigweed (Amaranthus retroflexus); assay: Test G Pre-Emergence Protocol; conditions: Amaranthus retroflexus, pre-emergence, 312 h, evaluated after 13 days; for pest or weed control at 15.625 g/ha: 15.625 g ai/ha; for pest or weed control at 15.625 g/ha / pest or weed control at 250 g/ha: read-out: Pigweed, Redroot damage rating (100=total damage to plant; 0=no damage to plant); for pest or weed control at 62.5 g/ha: 62.5 g ai/ha, 100=total damage to plant, 0=no damage to plant, read-out: plant damage rating, Pigweed, Redroot; for pest or weed control at 250 g/ha: 250 g ai/ha
In short: as §1

[3] = test system: barnyardgrass (Echinochloa crus-galli); assay: Test G Pre-Emergence Protocol; conditions: Echinochloa crus-galli, pre-emergence, 312 h, evaluated after 13 days; for pest or weed control at 15.625 g/ha: 15.625 g ai/ha, read-out: Barnyard grass damage rating (100=total damage to plant; 0=no damage to plant); for pest or weed control at 62.5 g/ha: 62.5 g ai/ha, 100=total damage to plant, 0=no damage to plant, read-out: plant damage rating, Barnyardgrass; for pest or weed control at 250 g/ha: 250 g ai/ha, read-out: Barnyardgrass damage rating (100=total damage to plant; 0=no damage to plant)
In short: as §1

[4] = test system: giant foxtail (Setaria faberi); assay: Test G Pre-Emergence Protocol; conditions: Setaria faberi, pre-emergence, 312 h, evaluated after 13 days; for pest or weed control at 15.625 g/ha: 15.625 g ai/ha; for pest or weed control at 15.625 g/ha / pest or weed control at 250 g/ha: read-out: Foxtail, Giant damage rating (100=total damage to plant; 0=no damage to plant); for pest or weed control at 62.5 g/ha: 62.5 g ai/ha, 100=total damage to plant, 0=no damage to plant, read-out: plant damage rating, Foxtail, Giant; for pest or weed control at 250 g/ha: 250 g ai/ha
In short: as §1

[5] = test system: velvetleaf (Abutilon theophrasti); assay: Test G Pre-Emergence Protocol; conditions: Abutilon theophrasti, pre-emergence, 312 h, evaluated after 13 days; for pest or weed control at 15.625 g/ha: 15.625 g ai/ha; for pest or weed control at 15.625 g/ha / pest or weed control at 250 g/ha: read-out: Velvetleaf damage rating (100=total damage to plant; 0=no damage to plant); for pest or weed control at 62.5 g/ha: 62.5 g ai/ha, 100=total damage to plant, 0=no damage to plant, read-out: plant damage rating, Velvetleaf; for pest or weed control at 250 g/ha: 250 g ai/ha
In short: as §1

[6] = test system: ivy-leaved morning glory (Ipomoea hederacea); assay: Test G Pre-Emergence Protocol; conditions: Ipomoea, pre-emergence, 312 h, evaluated after 13 days; for pest or weed control at 15.625 g/ha: 15.625 g ai/ha, read-out: Morning-glory, Ivy-leaved damage rating (100=total damage to plant; 0=no damage to plant); for pest or weed control at 62.5 g/ha: 62.5 g ai/ha, 100=total damage to plant, 0=no damage to plant, read-out: plant damage rating, Morningglory, Ivy-leaved; for pest or weed control at 250 g/ha: 250 g ai/ha, read-out: Morningglory, Ivy-leaved damage rating (100=total damage to plant; 0=no damage to plant)
In short: as §1

corn (Zea mays) [7] = assay: Test G Post-Emergence Protocol; conditions: Zea mays, post-emergence, 312 h; for plant injury at 15.625 g/ha: 15.625 g ai/ha, evaluated after 13 days (100=total damage to plant; 0=no damage to plant), read-out: Corn damage rating; for plant injury at 62.5 g/ha: 62.5 g ai/ha, read-out: Corn damage rating (100=total damage to plant; 0=no damage to plant); for plant injury at 62.5 g/ha / plant injury at 250 g/ha: evaluated after 13 days; for plant injury at 250 g/ha: 250 g ai/ha, read-out: damage to plant, Corn (100=total damage to plant; 0=no damage to plant)
In short: (§2)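 Values are percent visual injury at 13 days after treatment (0 none, 100 total). Treatment was a post-emergence spray at 15.625, 62.5 or 250 g/ha on 8-day-old pot plants kept at 24/16 °C.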

[8] = test system: redroot pigweed (Amaranthus retroflexus); assay: Test G Post-Emergence Protocol; conditions: Amaranthus retroflexus, post-emergence, 312 h; for pest or weed control at 15.625 g/ha: 15.625 g ai/ha, evaluated after 13 days (100=total damage to plant; 0=no damage to plant), read-out: Pigweed, Redroot damage rating; for pest or weed control at 62.5 g/ha: 62.5 g ai/ha, read-out: Pigweed, Redroot damage rating (100=total damage to plant; 0=no damage to plant); for pest or weed control at 62.5 g/ha / pest or weed control at 250 g/ha: evaluated after 13 days; for pest or weed control at 250 g/ha: 250 g ai/ha, read-out: damage to plant, Pigweed, Redroot (100=total damage to plant; 0=no damage to plant)
In short: as §2

[9] = test system: barnyardgrass (Echinochloa crus-galli); assay: Test G Post-Emergence Protocol; conditions: Echinochloa crus-galli, post-emergence, 312 h; for pest or weed control at 15.625 g/ha: 15.625 g ai/ha, evaluated after 13 days (100=total damage to plant; 0=no damage to plant), read-out: Barnyardgrass damage rating; for pest or weed control at 62.5 g/ha: 62.5 g ai/ha, read-out: Barnyardgrass damage rating (100=total damage to plant; 0=no damage to plant); for pest or weed control at 62.5 g/ha / pest or weed control at 250 g/ha: evaluated after 13 days; for pest or weed control at 250 g/ha: 250 g ai/ha, read-out: damage to plant, Barnyardgrass (100=total damage to plant; 0=no damage to plant)
In short: as §2

[10] = test system: giant foxtail (Setaria faberi); assay: Test G Post-Emergence Protocol; conditions: Setaria faberi, post-emergence, 312 h; for pest or weed control at 15.625 g/ha: 15.625 g ai/ha, evaluated after 13 days (100=total damage to plant; 0=no damage to plant), read-out: Foxtail, Giant damage rating; for pest or weed control at 62.5 g/ha: 62.5 g ai/ha, read-out: Foxtail, Giant damage rating (100=total damage to plant; 0=no damage to plant); for pest or weed control at 62.5 g/ha / pest or weed control at 250 g/ha: evaluated after 13 days; for pest or weed control at 250 g/ha: 250 g ai/ha, read-out: damage to plant, Foxtail, Giant (100=total damage to plant; 0=no damage to plant)
In short: as §2

[11] = test system: velvetleaf (Abutilon theophrasti); assay: Test G Post-Emergence Protocol; conditions: Abutilon theophrasti, post-emergence, 312 h; for pest or weed control at 15.625 g/ha: 15.625 g ai/ha, evaluated after 13 days (100=total damage to plant; 0=no damage to plant), read-out: Velvetleaf damage rating; for pest or weed control at 62.5 g/ha: 62.5 g ai/ha, read-out: Velvetleaf damage rating (100=total damage to plant; 0=no damage to plant); for pest or weed control at 62.5 g/ha / pest or weed control at 250 g/ha: evaluated after 13 days; for pest or weed control at 250 g/ha: 250 g ai/ha, read-out: damage to plant, Velvetleaf (100=total damage to plant; 0=no damage to plant)
In short: as §2

[12] = test system: ivy-leaved morning glory (Ipomoea hederacea); assay: Test G Post-Emergence Protocol; conditions: Ipomoea, post-emergence, 312 h; for pest or weed control at 15.625 g/ha: 15.625 g ai/ha, evaluated after 13 days (100=total damage to plant; 0=no damage to plant), read-out: Morningglory, Ivy-leaved damage rating; for pest or weed control at 62.5 g/ha: 62.5 g ai/ha, read-out: Morningglory, Ivy-leaved damage rating (100=total damage to plant; 0=no damage to plant); for pest or weed control at 62.5 g/ha / pest or weed control at 250 g/ha: evaluated after 13 days; for pest or weed control at 250 g/ha: 250 g ai/ha, read-out: damage to plant, Morningglory, Ivy-leaved (100=total damage to plant; 0=no damage to plant)
In short: as §2

SMILES	plant injury at 15.625 g/ha (corn (Zea mays) [1]) [%]	plant injury at 62.5 g/ha (corn (Zea mays) [1]) [%]	plant injury at 250 g/ha (corn (Zea mays) [1]) [%]	pest or weed control at 15.625 g/ha [2] [%]	pest or weed control at 62.5 g/ha [2] [%]	pest or weed control at 250 g/ha [2] [%]	pest or weed control at 15.625 g/ha [3] [%]	pest or weed control at 62.5 g/ha [3] [%]	pest or weed control at 250 g/ha [3] [%]	pest or weed control at 15.625 g/ha [4] [%]	pest or weed control at 62.5 g/ha [4] [%]	pest or weed control at 250 g/ha [4] [%]	pest or weed control at 15.625 g/ha [5] [%]	pest or weed control at 62.5 g/ha [5] [%]	pest or weed control at 250 g/ha [5] [%]	pest or weed control at 15.625 g/ha [6] [%]	pest or weed control at 62.5 g/ha [6] [%]	pest or weed control at 250 g/ha [6] [%]	plant injury at 15.625 g/ha (corn (Zea mays) [7]) [%]	plant injury at 62.5 g/ha (corn (Zea mays) [7]) [%]	further results
CN1C[C@H](c2cccc(C#N)c2)[C@@H](C(=O)Nc2ccccc2F)C1=O (racemic) [Compound 1471]	0	0	0	0	0	0	10	70	90	40	80	90	0	0	0	0	0	20	10	0	plant injury at 250 g/ha (corn (Zea mays) [7]): 0%; pest or weed control at 15.625 g/ha [8]: 10%; pest or weed control at 62.5 g/ha [8]: 0%; pest or weed control at 250 g/ha [8]: 20%; pest or weed control at 15.625 g/ha [9]: 30%; pest or weed control at 62.5 g/ha [9]: 30%; pest or weed control at 250 g/ha [9]: 50%; pest or weed control at 15.625 g/ha [10]: 10%; pest or weed control at 62.5 g/ha [10]: 60%; pest or weed control at 250 g/ha [10]: 70%; pest or weed control at 15.625 g/ha [11]: 10%; pest or weed control at 62.5 g/ha [11]: 0%; pest or weed control at 250 g/ha [11]: 10%; pest or weed control at 15.625 g/ha [12]: 10%; pest or weed control at 62.5 g/ha [12]: 0%; pest or weed control at 250 g/ha [12]: 20%
COc1ccc(CNC(=O)[C@H]2C(=O)N(C)C[C@@H]2c2ccc(C(F)(F)F)cc2)c(OC)c1 (racemic) [Compound 1479]	0	0	0	0	0	0	0	0	10	0	20	20	0	0	10	0	0	0	10	10	plant injury at 250 g/ha (corn (Zea mays) [7]): 10%; pest or weed control at 15.625 g/ha [8]: 0%; pest or weed control at 62.5 g/ha [8]: 0%; pest or weed control at 250 g/ha [8]: 20%; pest or weed control at 15.625 g/ha [9]: 0%; pest or weed control at 62.5 g/ha [9]: 20%; pest or weed control at 250 g/ha [9]: 20%; pest or weed control at 15.625 g/ha [10]: 0%; pest or weed control at 62.5 g/ha [10]: 20%; pest or weed control at 250 g/ha [10]: 0%; pest or weed control at 15.625 g/ha [11]: 0%; pest or weed control at 62.5 g/ha [11]: 0%; pest or weed control at 250 g/ha [11]: 0%; pest or weed control at 15.625 g/ha [12]: 0%; pest or weed control at 62.5 g/ha [12]: 0%; pest or weed control at 250 g/ha [12]: 0%
COc1cc([C@@H]2CN(C)C(=O)[C@H]2C(=O)Nc2cccc(F)c2F)ccn1 (racemic) [Compound 1480]	20	30	80	0	0	40	30	80	90	40	90	90	0	0	10	0	0	70	20	20	plant injury at 250 g/ha (corn (Zea mays) [7]): 60%; pest or weed control at 15.625 g/ha [8]: 0%; pest or weed control at 62.5 g/ha [8]: 0%; pest or weed control at 250 g/ha [8]: 10%; pest or weed control at 15.625 g/ha [9]: 50%; pest or weed control at 62.5 g/ha [9]: 70%; pest or weed control at 250 g/ha [9]: 80%; pest or weed control at 15.625 g/ha [10]: 60%; pest or weed control at 62.5 g/ha [10]: 70%; pest or weed control at 250 g/ha [10]: 70%; pest or weed control at 15.625 g/ha [11]: 0%; pest or weed control at 62.5 g/ha [11]: 0%; pest or weed control at 250 g/ha [11]: 20%; pest or weed control at 15.625 g/ha [12]: 0%; pest or weed control at 62.5 g/ha [12]: 0%; pest or weed control at 250 g/ha [12]: 20%
